Source: patent publication US7524503B2, “Human cytomegalovirus (HCMV) cytotoxic T cell epitopes, polyepitopes compositions comprising same and diagnostic and prophylactic and therapeutic uses therefor” (priority 2001, dated 2009)
Where no end group is shown, it is not given here.

Target: T1, HLA A2 (Homo sapiens, UniProt P04439, D140Y/D185E/D98H/E176V/E277Q/G131W/G231S/I119V/I121R/I166T/I218V/L300P/L318F/N151K/N90K/P208A/P217A/Q86G/Q94H/R138H/R169H/T345S)
T1 construct: endogenous in cells; host or cells: T2 cells
Assay: not given
Format: cell-based
Conditions: HLA A2 on T2 cells; relative increase in HLA expression vs no peptide at 26° C.

Sequence	MSE (MHC stabilization efficiency)
IILVAIAVV (human cytomegalovirus gB CTL epitope peptide)	+ (+ = 51-99%)
NILQKIEKI (human cytomegalovirus pp150 CTL epitope peptide)	+ (+ = 51-99%)
SLVRLVYIL (human cytomegalovirus gH CTL epitope peptide)	+ (+ = 51-99%)
TLLVYLFSL (human cytomegalovirus US3 CTL epitope peptide)	++ (++ = 100-199%)
ALDPYNEVV (human cytomegalovirus gH CTL epitope peptide)	+++ (+++ = 200-300%)
NLALSTPFL (human cytomegalovirus IE2 CTL epitope peptide)	++ (++ = 100-199%)
LLYPTAVDL (human cytomegalovirus gH CTL epitope peptide)	+++ (+++ = 200-300%)
FLGARSPSL (human cytomegalovirus pp150 CTL epitope peptide)	++ (++ = 100-199%)
DLDEGIMVV (human cytomegalovirus gB CTL epitope peptide)	− (− = 0-50%)
QMLLALARL (human cytomegalovirus gB CTL epitope peptide)	+ (+ = 51-99%)
FLLSHDAAL (human cytomegalovirus pp28 CTL epitope peptide)	++ (++ = 100-199%)
GLLGASMDL (human cytomegalovirus pp28 CTL epitope peptide)	− (− = 0-50%)
ILGADPLRV (human cytomegalovirus IE1 CTL epitope peptide)	++ (++ = 100-199%)
ILDEERDKV (human cytomegalovirus IE1 CTL epitope peptide)	++ (++ = 100-199%)
ALFFFDIDL [reference compound]	++ (++ = 100-199%)
GLDDLMSGL (human cytomegalovirus gB CTL epitope peptide)	++ (++ = 100-199%)
YLTVFTVYL (human cytomegalovirus gH CTL epitope peptide)	++ (++ = 100-199%)
RIEENLEGV (human cytomegalovirus pp150 CTL epitope peptide)	+ (+ = 51-99%)
LLLIVTPVV (human cytomegalovirus pp28 CTL epitope peptide)	++ (++ = 100-199%)

Test system: PBMC from healthy HCMV seropositive donors
Assay: IFN-γ ELISPOT assay
Format: cell-based, human
Conditions: donor eight; peptide 10 μg/ml
Experimental: ELISPOT assay was used to assess whether stimulation of PBMC from a large panel of seropositive donors with HCMV peptides could induce IFN-γ expression in T cells. Briefly, a 96-well nitrocellulose plate (Multiscreen, Millipore) was coated overnight at 4° C. with mouse monoclonal antibody anti-IFN-γ IgG1 (10 μg/ml; Mabtech Nacka, Sweden). The plate was then washed six times in Phosphate Buffered Saline (PBS) and blocked for 1 hour at 37° C. with PBS supplemented with 5% FCS. The blocking solution was removed and PBMC from healthy HCMV seropositive donors were added at a concentration of 2.5×10^5 cells per well in growth medium. These cells were incubated for 18 h at 37° C. in a 5% CO2 atmosphere in the presence of synthetic peptides from HCMV antigens (10 μg/ml). After incubation, the plate was washed three times with PBS supplemented with 0.05% Tween, followed by three washes with PBS alone. Biotinylated anti-IFN-γ (Mabtech, Nacka Sweden) detection antibody was added to each well at a final concentration of 1 μg/ml in PBS. The plates were incubated at room temperature in the dark for 4 h and then washed, as described above. Streptavidin-Alkaline phosphatase (Sigma) was added to each well at a final concentration of 1 μg/ml in PBS and incubated at room temperature in the dark for 2 h. After a final wash with PBS, the substrate, 5-bromo-4-chloro-3-indolyl phosphate and nitro blue tetrazolium, was added to each well and the plates incubated for 30 min at RT. Cells that produced IFN-γ in response to the presence of peptide were detected as purple spots on the nitrocellulose membrane of each well. The spots were counted automatically using a closed-circuit camera (CCD) and ImagePro image analysis software or automated ELISPOT reader (AID, Germany). The T cell precursor frequency for each peptide was based on the total number of PBMC in the well and the number of peptide-specific spots per well, over an average of 3 wells. The number of peptide-specific spots was also calculated by subtracting the negative control values, which consisted of PBMC without peptide (an average of 3 wells), from the test wells.
To determine whether memory CTL responses against the predictive HCMV potential epitopes could be detected in healthy seropositive virus carriers, we used the ELISPOT assay, which allows rapid identification of CTL epitopes without prolonged in vitro culture.
We tested epitopes that were restricted for HLA A1, A3, A24, A26, B7, B8, B27, B35 and B44 in ELISPOT assays, to determine whether memory T cell responses could be detected in healthy HLA-matched virus carriers. PBMC from a cohort of healthy virus carriers (Table 2) were stimulated with individual peptides and the cells that produced IFN-γ were detected. CTL epitopes that were restricted through either HLA A1, A3, A24, A26, B7, B8 or B27, were identified.
Thus, a total of 450 peptides were produced. ELISPOT assays were used to determine whether ex vivo memory T cell responses could be detected in a cohort of 14 healthy virus carriers (Table 2). PBMC were stimulated with individual peptides and the cells that produced IFN-γ were detected.

Sequence	ELISPOT Responses (SFC/10^6 PBMC)
ASSPSTGSGTPRBTSPTHPL (ASSPSTGSGTPRXTSPTHPL; not fully specified)	JW(95) SFC/10^6 PBMC
PRVTSPTHPLSQMNHPPLPD	52 SFC/10^6 PBMC
YRNMIIHAATPVDLLGALNL (human cytomegalovirus IE2 CTL epitope peptide)	132 SFC/10^6 PBMC

Same assay, conditions: donor eleven; peptide 10 μg/ml

Sequence	ELISPOT Responses (SFC/10^6 PBMC)
TVQGQNLKY	385
IGDQYVKVY	565

Same assay, conditions: donor epsilon; peptide 10 μg/ml

Sequence	ELISPOT Responses (SFC/10^6 PBMC)
HRQDALPGPCIASTPKKHRG	SC(109) SFC/10^6 PBMC
THQLCPRSSDYRNMIIHAAT (human cytomegalovirus IE2 CTL epitope peptide)	173 SFC/10^6 PBMC
WQPAAQPKRRRHRQDALPGP	SC(615) SFC/10^6 PBMC
YRHTWDRHDEGAAQGDDDVW	SC(295) SFC/10^6 PBMC
TSAGRKRKSASSATACTSGV	SC(138) SFC/10^6 PBMC
YRNMIIHAATPVDLLGALNL (human cytomegalovirus IE2 CTL epitope peptide)	229 SFC/10^6 PBMC
RVKIDEVSRMFRNTNRSLEY	306 SFC/10^6 PBMC
PVDLLGALNLCLPLMQKFPK (human cytomegalovirus IE2 CTL epitope peptide)	111 SFC/10^6 PBMC
LTVSGLAWTRQQNQWKEPDV	SC(695) SFC/10^6 PBMC

Same assay, conditions: donor fifteen; peptide 10 μg/ml

Sequence	ELISPOT Responses (SFC/10^6 PBMC)
NIEFFTKNSAFPKTTNGCSQ (human cytomegalovirus IE1 CTL epitope peptide)	CP(1767) SFC/10^6 PBMC
RRKMMYMCYRNIEFFTKNSA (human cytomegalovirus IE1 CTL epitope peptide)	CP(632) SFC/10^6 PBMC

Same assay, conditions: donor five; peptide 10 μg/ml

Sequence	ELISPOT Responses (SFC/10^6 PBMC)
TENGSFVAGY (human cytomegalovirus UL18 CTL epitope peptide)	CS(283) SFC/10^6 PBMC
YEQHKITSY (human cytomegalovirus pp50 CTL epitope peptide)	CS(67) SFC/10^6 PBMC

Same assay, conditions: donor four; peptide 10 μg/ml

Sequence	ELISPOT Responses (SFC/10^6 PBMC)
FETSGGLVVFWQGIKQKSLV (human cytomegalovirus gB CTL epitope peptide)	23 SFC/10^6 PBMC
ALTVSEHVSYVVTNQYLIKG	MB(23) SFC/10^6 PBMC
RPSTPRAAV (human cytomegalovirus pp150 CTL epitope peptide)	MB(306) SFC/10^6 PBMC

Same assay, conditions: donor nine; peptide 10 μg/ml

Sequence	ELISPOT Responses (SFC/10^6 PBMC)
RGDPFDKNY (human cytomegalovirus pp50 CTL epitope peptide)	720

Same assay, conditions: donor seven; peptide 10 μg/ml

Sequence	ELISPOT Responses (SFC/10^6 PBMC)
FETSGGLVVFWQGIKQKSLV (human cytomegalovirus gB CTL epitope peptide)	185 SFC/10^6 PBMC
MLPLIKQEDIKPEPDFTIQY	SB(132) SFC/10^6 PBMC

Same assay, conditions: donor sixteen; peptide 10 μg/ml

Sequence	ELISPOT Responses (SFC/10^6 PBMC)
NTDFRVLEL (human cytomegalovirus gB CTL epitope peptide)	TC(1631) SFC/10^6 PBMC
GLDRNSGNY (human cytomegalovirus pp50 CTL epitope peptide)	507 SFC/10^6 PBMC
DEEEAIVAY (human cytomegalovirus IE1 CTL epitope peptide)	TC(3903) SFC/10^6 PBMC
THQLCPRSSDYRNMIIHAAT (human cytomegalovirus IE2 CTL epitope peptide)	124 SFC/10^6 PBMC
CTPNVQTRRGRVKIDEVSRM	TC(89) SFC/10^6 PBMC
KDVALRHVVCAHELVCSMEN	TC(50) SFC/10^6 PBMC
PLGRPDEDSSSSSSSSCSSA	TC(46) SFC/10^6 PBMC
RGDPFDKNY (human cytomegalovirus pp50 CTL epitope peptide)	2739 SFC/10^6 PBMC
TVQGQNLKY	251 SFC/10^6 PBMC
PRVTSPTHPLSQMNHPPLPD	96 SFC/10^6 PBMC
LDEGIMVVY (human cytomegalovirus gB CTL epitope peptide)	TC(239) SFC/10^6 PBMC
IKEHMLKKY (human cytomegalovirus IE1 CTL epitope peptide)	TC(4232) SFC/10^6 PBMC
IGDQYVKVY	67 SFC/10^6 PBMC
YRNMIIHAATPVDLLGALNL (human cytomegalovirus IE2 CTL epitope peptide)	TC(137) SFC/10^6 PBMC
VKESPGRCY (human cytomegalovirus gB CTL epitope peptide)	TC(51) SFC/10^6 PBMC
RVKIDEVSRMFRNTNRSLEY	194 SFC/10^6 PBMC
PVDLLGALNLCLPLMQKFPK (human cytomegalovirus IE2 CTL epitope peptide)	169 SFC/10^6 PBMC
ATSTGDVVY (human cytomegalovirus gB CTL epitope peptide)	TC(239) SFC/10^6 PBMC
KCSSGGGASVTSSHHGRGGF	TC(54) SFC/10^6 PBMC
CVETMCNEY (human cytomegalovirus IE1 CTL epitope peptide) [reference compound]	TC(4187) SFC/10^6 PBMC

Same assay, conditions: donor three; peptide 10 μg/ml

Sequence	ELISPOT Responses (SFC/10^6 PBMC)
GLDRNSGNY (human cytomegalovirus pp50 CTL epitope peptide)	345 SFC/10^6 PBMC
HANTALVNAVNKLVYTGRLI (human cytomegalovirus pp150 CTL epitope peptide)	MW(122) SFC/10^6 PBMC
STSQKPVLGKRVATPHASAR (human cytomegalovirus pp150 CTL epitope peptide)	MW(215) SFC/10^6 PBMC
